Data published in publication PMC8957246, “Synthesis and diverse biological activity profile of triethylammonium isatin-3-hydrazones” (ADMET & DMPK, 2022).
Read-outs that look alike come from different tables or passages of the source.

Assays:
Assay type in all cases: cell-based
[1] = test system: Enterococcus faecalis ATCC 29212; experiment: Antimicrobial activity, serial dilution (MIC/MBC), Ef; conditions: ATCC29212
Procedure: The antimicrobial activity of the test compounds was determined by the serial dilution technique in Muller Hinton Broth 2 and in Sabouradu broth for fungi. The cultures used for testing included Gram-positive bacteria: Staphylococcus aureus ATCC 6538P FDA 209P, Bacillus cereus ATCC 10702 NCTC 8035, Enterococcus faecalis ATCC 29212; Gram-negative bacteria: Escherichia coli ATCC 25922, Pseudomonas aeruginosa ATCC 9027, and fungi: Trichophyton mentagrophytes var. gypseum 1773, and Candida albicans ATCC 10231; methicillin-resistant strains of S. aureus (MRSA) was obtained from hospital patients with chronic tonsillitis in the Republican Clinical Hospital (Kazan, Russia). The bacterial load was 3.0 × 10^5 cfu/ml. The fungi load was 2.0 × 10^3 cfu/ml. The results were recorded every 24 h for 5-7 days. Cultures were incubated at 37 °C. The experiment was repeated three times. […] The minimum inhibitory concentration (MIC) was defined as the minimum concentration of a compound that inhibits the growth of the corresponding test microorganism. The growth of bacteria, as well as the absence of the growth due to the bacteriostatic action of compounds, were recorded.
Synthesized compounds were further evaluated for antimicrobial activity against test microorganisms: Staphylococcus aureus ATCC 209p (Sa), Bacillus cereus ATCC 8035 (Bc), Escherichia coli CDC F-50 (Ec), Enterococcus faecalis (Ef), Pseudomonas aeruginosa ATCC 9027, Aspergillus niger BKMF-1119, Trichophyton mentagrophytes var. gypseum 1773, and Candida albicans 855-653 including methicillin-resistant strains of S. aureus (MRSA 1 and MRSA 2). The minimum inhibitory (MIC) and minimum bactericidal (MBC) concentrations of ammonium salts were determined against these pathogens (Table 1). Due to the lack of activity of compounds 3a-g against Gram-negative bacterial strains and some fungi, the corresponding data are not shown.

[2] = test system: Pseudomonas fluorescens EL-2.1; experiment: Bactericidal activity, agar diffusion, Ps. fluorescens; conditions: Pseudomonas fluorescens, EL2.1, 2 mM/L
Excerpt: (§1) Plant pathogenic bacterial strains Micrococcus luteus B-109, Pectobacterium atrosepticum 1043, Pectobacterium carotovorum subsp. carotovorum MI, Pseudomonas fluorescens EL-2.1, and Xanthomonas campestris B-610 and fungal strain Fusarium oxysporum IBPPM 543 were obtained from the specialized scientific culture collection of IBPPM RAS (WFCC no. 975, WDCM no. 1021) (CM IBPPM). Pathogenic fungus Phytophthora cactorum VKM F-985 provided by the All-Russian Collection of Microorganisms (VKM) and deposited at A.E. Favorsky Irkutsk Institute of Chemistry, SB RAS, was also used as test organism. Bacteria M. luteus, P. carotovorum subsp. carotovorum, P. atrosepticum, and Ps. fluorescens were grown in meat-peptone medium (BP), and X. campestris was grown in the medium with glucose, yeast extract, and calcium carbonate (GYCa). Solid media contained Bacto agar (18 g/L); pH was adjusted to 7.2-7.4. All bacterial cultures were grown at 28°C. The mycelial cultures of F. oxysporum and P. cactorum were grown on a glucose-peptone-yeast (GPY) nutrient medium at 27 °C. For inoculum preparation, both fungal strains were initially grown on the agar GPY in Petri dishes and then transferred into the seed medium by punching out 5 mm of the agar plate culture with a self-designed cutter.
Antibacterial and antifungal activities of the compounds were explored using the agar diffusion method and the technique of a phytopathogen radial growth inhibition. Method of diffusion in agar (measuring the diameter of growth inhibition zones) was used for determining the bactericidal activity. The 6-mm wells were made in ager medium (GYCa for Xanthomonas campestris or BP for other bacteria). Bacterial suspensions were distributed over the agar surface, and the tested compound's solution (150 μl) was added to each well. The width of growth inhibition zones around the wells was determined after incubation for 36-40 h.
(§2) The solutions of tested compounds were prepared with a concentration of 2 mmol/l (stock solution). For comparison, test compounds were also commonly applied disinfecting agents and antibiotics.

[3] = test system: Fusarium oxysporum IBPPM 543; experiment: Fungicidal activity, radial growth inhibition, F. oxysporum; conditions: for EC50: Fusarium oxysporum, IBPPM543, 168 h, day 7, EC50 = 50C/I, read-out: EC50, μg/mL at day 7
Excerpt: as §1
For the fungicidal activity analysis, radial growth (colony diameters) of the fungi on a solid medium in the absence and in the presence of the compounds 3a,c-g solutions at various concentrations were compared. The method consisted of the following: sterile, melted and then cooled to about 60°C GPY agar medium (20.0 ml) was mixed with the precisely measured volumes of the solutions under question, and poured into a sterile Petri dish (90 mm i.d.). After solidification of GPY agar, the media were inoculated by the fungus using 10-day-old cultures of F. oxysporum or P. cactorum. The inoculation was done by transferring a 5-mm (i.d.) GPY-agar block covered with mycelium to the center of the Petri dish followed by incubation in a thermostat at 27°C. The fungicidal effect was scored by the size of mycelium colony on a Petri dish compared to the control without fungicidal admixtures to GPY agar. Each treatment was performed in at least four replicates in two independent experiments. The observation period ended when the control Petri dish was filled with mycelium (usually after 12 days). The inhibition of the phytopathogen colony growth by the compounds 3a,c-g or fludioxonil solutions was calculated as a percentage by which the mycelium radial propagation was decreased compared to the unaffected control, the latter was taken as 100 % of growth (or zero percent of inhibition). The EC50 value was calculated as the compound concentration at which the radial growth of the fungus colony was decreased by 50 % relative to the non-fungicidal control, according to the formula EC50 = 50C/I based on the approach developed e.g., in [34, 35].
as §2

[4] = 150 μl per well, 36-40 h, read-out: width of the inhibition zone
[5] = read-out: Inhibition zone width (mm), not less
[6] = C 6.30 μg/mL, age of the fungus 3 days
[7] = C 6.30 μg/mL, age of the fungus 5 days
[8] = C 6.30 μg/mL, age of the fungus 7 days
[9] = C 6.30 μg/mL, age of the fungus 9 days
[10] = C 12.60 μg/mL, age of the fungus 3 days
[11] = C 12.60 μg/mL, age of the fungus 5 days
[12] = C 12.60 μg/mL, age of the fungus 7 days
[13] = C 12.60 μg/mL, age of the fungus 9 days
[14] = C 25.20 μg/mL, age of the fungus 3 days
[15] = C 25.20 μg/mL, age of the fungus 5 days
[16] = C 25.20 μg/mL, age of the fungus 7 days
[17] = C 25.20 μg/mL, age of the fungus 9 days
[18] = C 37.80 μg/mL, age of the fungus 3 days
[19] = C 37.80 μg/mL, age of the fungus 5 days
[20] = C 37.80 μg/mL, age of the fungus 7 days
[21] = C 37.80 μg/mL, age of the fungus 9 days

MIC [1] [µM] | Structure (SMILES) | MBC [1] [µM] | zone of inhibition at 2000 µM [2, 4] [mm] | zone of inhibition at 2000 µM [2, 5] [mm] | EC50 [3] [µg/mL] | Inhibition value, I (%) [3, 6] [%] | Inhibition value, I (%) [3, 7] [%] | Inhibition value, I (%) [3, 8] [%] | Inhibition value, I (%) [3, 9] [%] | Inhibition value, I (%) [3, 10] [%] | Inhibition value, I (%) [3, 11] [%] | Inhibition value, I (%) [3, 12] [%] | Inhibition value, I (%) [3, 13] [%] | Inhibition value, I (%) [3, 14] [%] | Inhibition value, I (%) [3, 15] [%] | Inhibition value, I (%) [3, 16] [%] | Inhibition value, I (%) [3, 17] [%] | Inhibition value, I (%) [3, 18] [%] | Inhibition value, I (%) [3, 19] [%] | Inhibition value, I (%) [3, 20] [%] | further results
> 500 | CC[N+](CC)(CC)CC(=O)N/N=C1\C(=O)N(Cc2cc(C(C)(C)C)c(O)c(C(C)(C)C)c2)c2ccccc21 [Compound 3a, 2-(2-(1-(3,5-Di-tert-butyl-4-hydroxybenzyl)-2-oxoindolin-3-ylidene)hydrazinyl)-N,N,N-triethyl-2-oxoethanammonium bromide] | > 500 | 9 | ≥ 9 | 33.4 | – | – | – | – | – | – | – | – | – | – | – | – | – | – | – | Inhibition value, I (%) ([3]; C 6.02 μg/mL, age of the fungus 3 days): 11%; Inhibition value, I (%) ([3]; C 6.02 μg/mL, age of the fungus 5 days): 4%; Inhibition value, I (%) ([3]; C 6.02 μg/mL, age of the fungus 7 days): 9%; Inhibition value, I (%) ([3]; C 6.02 μg/mL, age of the fungus 9 days): 0%; Inhibition value, I (%) ([3]; C 12.04 μg/mL, age of the fungus 3 days): 14%; Inhibition value, I (%) ([3]; C 12.04 μg/mL, age of the fungus 5 days): 12%; Inhibition value, I (%) ([3]; C 12.04 μg/mL, age of the fungus 7 days): 18%; Inhibition value, I (%) ([3]; C 12.04 μg/mL, age of the fungus 9 days): 3%; Inhibition value, I (%) ([3]; C 24.08 μg/mL, age of the fungus 3 days): 24%; Inhibition value, I (%) ([3]; C 24.08 μg/mL, age of the fungus 5 days): 16%; Inhibition value, I (%) ([3]; C 24.08 μg/mL, age of the fungus 7 days): 27%; Inhibition value, I (%) ([3]; C 24.08 μg/mL, age of the fungus 9 days): 4%; Inhibition value, I (%) ([3]; C 36.12 μg/mL, age of the fungus 3 days): 28%; Inhibition value, I (%) ([3]; C 36.12 μg/mL, age of the fungus 5 days): 24%; Inhibition value, I (%) ([3]; C 36.12 μg/mL, age of the fungus 7 days): 30%; Inhibition value, I (%) ([3]; C 36.12 μg/mL, age of the fungus 9 days): 12%
> 500 | CCc1cccc2c1N(Cc1cc(C(C)(C)C)c(O)c(C(C)(C)C)c1)C(=O)/C2=N\NC(=O)C[N+](CC)(CC)CC [Compound 3c, 2-(2-(1-(3,5-Di-tert-butyl-4-hydroxybenzyl)-7-ethyl-2-oxoindolin-3-ylidene)hydrazinyl)-N,N,N-triethyl-2-oxoethanammonium bromide] | > 500 | 8 | ≥ 8 | 10.5 | 2 | 11 | 30 | 17 | 24 | 26 | 33 | 23 | 31 | 33 | 47 | 27 | 44 | 42 | 59 | Inhibition value, I (%) [3, 21]: 38%
49.6 ± 3.9 | CC[N+](CC)(CC)CC(=O)N/N=C1\C(=O)N(Cc2cc(C(C)(C)C)c(O)c(C(C)(C)C)c2)c2c1ccc(C)c2C [Compound 3d, 2-(2-(1-(3,5-Di-tert-butyl-4-hydroxybenzyl)-6,7-dimethyl-2-oxoindolin-3-ylidene)hydrazinyl)-N,N,N-triethyl-2-oxoethanammonium bromide] | 49.6 ± 3.9 | 9 | ≥ 9 | 48.5 | 0 | 5 | 5 | 0 | 8 | 12 | 13 | 2 | 17 | 15 | 20 | 8 | 22 | 18 | 24 | Inhibition value, I (%) [3, 21]: 9%
> 500 | CC[N+](CC)(CC)CC(=O)N/N=C1\C(=O)N(Cc2cc(C(C)(C)C)c(O)c(C(C)(C)C)c2)c2cccc(Br)c21 [Compound 3e, 2-(2-(1-(3,5-Di-tert-butyl-4-hydroxybenzyl)-4-bromo-2-oxoindolin-3-ylidene)hydrazinyl)-N,N,N-triethyl-2-oxoethanammonium bromide] | > 500 | 9 | ≥ 9 | 17.9 | – | – | – | – | – | – | – | – | – | – | – | – | – | – | – | Inhibition value, I (%) ([3]; C 6.81 μg/mL, age of the fungus 3 days): 11%; Inhibition value, I (%) ([3]; C 6.81 μg/mL, age of the fungus 5 days): 13%; Inhibition value, I (%) ([3]; C 6.81 μg/mL, age of the fungus 7 days): 19%; Inhibition value, I (%) ([3]; C 6.81 μg/mL, age of the fungus 9 days): 6%; Inhibition value, I (%) ([3]; C 13.62 μg/mL, age of the fungus 3 days): 14%; Inhibition value, I (%) ([3]; C 13.62 μg/mL, age of the fungus 5 days): 18%; Inhibition value, I (%) ([3]; C 13.62 μg/mL, age of the fungus 7 days): 22%; Inhibition value, I (%) ([3]; C 13.62 μg/mL, age of the fungus 9 days): 9%; Inhibition value, I (%) ([3]; C 27.24 μg/mL, age of the fungus 3 days): 19%; Inhibition value, I (%) ([3]; C 27.24 μg/mL, age of the fungus 5 days): 19%; Inhibition value, I (%) ([3]; C 27.24 μg/mL, age of the fungus 7 days): 25%; Inhibition value, I (%) ([3]; C 27.24 μg/mL, age of the fungus 9 days): 20%; Inhibition value, I (%) ([3]; C 40.86 μg/mL, age of the fungus 3 days): 40%; Inhibition value, I (%) ([3]; C 40.86 μg/mL, age of the fungus 5 days): 37%; Inhibition value, I (%) ([3]; C 40.86 μg/mL, age of the fungus 7 days): 43%; Inhibition value, I (%) ([3]; C 40.86 μg/mL, age of the fungus 9 days): 29%
